Assay results reported in US9815796B2 (Merck Sharp & Dohme Corp., priority 2013, dated 2017).
Like-named read-outs stand apart in the source and are kept apart here.

Key:
Rhesus PDE2A3 = Rhesus PDE2A3 (Macaca mulatta, UniProt B3VTJ2); assay: PDE2 fluorescence polarization (IMAP FP) inhibition assay, rhesus enzyme; assay type: biochemical, rhesus macaque
Summary of the method: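 IMAP FP (mP from parallel and perpendicular fluorescence against substrate-only control) was read ≥1 h after adding binding reagent. The preceding 60 min room-temperature reaction contained FAM-cAMP (50 nM) and cGMP (1 uM) in pH 7.2 Tris buffer with MgCl2 and DTT. Enzyme was supernatant of sonicated AD293 cells expressing rhesus PDE2A3; compounds were 3-fold titrated, DMSO 1% final.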

human PDE2A1 = human PDE2A1 (Homo sapiens (Human), UniProt O00408); assay: IMAP FP PDE selectivity panel, human PDE2A1; assay type: biochemical
Sequence of human PDE2A1 (O00408 other isoform, or with tags, fused parts or gaps): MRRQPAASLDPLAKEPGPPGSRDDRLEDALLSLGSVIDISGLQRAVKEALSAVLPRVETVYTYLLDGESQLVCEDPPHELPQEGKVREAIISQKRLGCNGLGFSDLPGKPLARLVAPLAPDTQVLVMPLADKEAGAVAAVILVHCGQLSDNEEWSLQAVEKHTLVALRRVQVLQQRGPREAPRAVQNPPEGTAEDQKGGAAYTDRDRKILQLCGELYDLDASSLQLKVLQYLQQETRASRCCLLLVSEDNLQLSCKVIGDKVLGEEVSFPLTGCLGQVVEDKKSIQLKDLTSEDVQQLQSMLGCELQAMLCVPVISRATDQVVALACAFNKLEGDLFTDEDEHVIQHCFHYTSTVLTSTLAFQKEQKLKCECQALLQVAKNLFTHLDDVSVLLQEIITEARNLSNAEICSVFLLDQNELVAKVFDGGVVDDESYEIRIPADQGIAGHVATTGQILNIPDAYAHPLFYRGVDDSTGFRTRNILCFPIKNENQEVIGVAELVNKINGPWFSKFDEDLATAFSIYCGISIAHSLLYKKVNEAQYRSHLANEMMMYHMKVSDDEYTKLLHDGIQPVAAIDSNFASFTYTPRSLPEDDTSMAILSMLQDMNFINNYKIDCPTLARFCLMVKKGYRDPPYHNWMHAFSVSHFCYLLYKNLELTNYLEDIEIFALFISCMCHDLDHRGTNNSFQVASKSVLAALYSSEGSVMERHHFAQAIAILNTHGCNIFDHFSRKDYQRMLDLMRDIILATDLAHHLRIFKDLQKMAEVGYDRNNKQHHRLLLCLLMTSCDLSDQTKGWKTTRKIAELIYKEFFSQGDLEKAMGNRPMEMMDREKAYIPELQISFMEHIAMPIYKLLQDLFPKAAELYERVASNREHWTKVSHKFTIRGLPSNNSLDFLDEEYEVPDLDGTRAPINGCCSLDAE
Summary of the method: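 IMAP FP format: substrate 50 nM FAM-cAMP plus 1000 nM cGMP, enzyme (insect-cell GST-tagged human PDE2A1) at ~20% conversion, 60 min reaction at room temperature. Apparent inhibition constants calculated from parallel/perpendicular fluorescence with KM 10,000 nM.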

[1] = Rhesus PDE2, Lab A, read-out: Rhesus PDE2 Ki (nM) - Lab A
[2] = Human PDE2, Lab A, read-out: Human PDE2 Ki (nM) - Lab A
[3] = Rhesus PDE2, Lab B, read-out: Rhesus PDE2 Ki (nM) - Lab B
[4] = Human PDE2, Lab B, read-out: Human PDE2 Ki (nM) - Lab B

Sequence of Rhesus PDE2A3 (B3VTJ2 1-941): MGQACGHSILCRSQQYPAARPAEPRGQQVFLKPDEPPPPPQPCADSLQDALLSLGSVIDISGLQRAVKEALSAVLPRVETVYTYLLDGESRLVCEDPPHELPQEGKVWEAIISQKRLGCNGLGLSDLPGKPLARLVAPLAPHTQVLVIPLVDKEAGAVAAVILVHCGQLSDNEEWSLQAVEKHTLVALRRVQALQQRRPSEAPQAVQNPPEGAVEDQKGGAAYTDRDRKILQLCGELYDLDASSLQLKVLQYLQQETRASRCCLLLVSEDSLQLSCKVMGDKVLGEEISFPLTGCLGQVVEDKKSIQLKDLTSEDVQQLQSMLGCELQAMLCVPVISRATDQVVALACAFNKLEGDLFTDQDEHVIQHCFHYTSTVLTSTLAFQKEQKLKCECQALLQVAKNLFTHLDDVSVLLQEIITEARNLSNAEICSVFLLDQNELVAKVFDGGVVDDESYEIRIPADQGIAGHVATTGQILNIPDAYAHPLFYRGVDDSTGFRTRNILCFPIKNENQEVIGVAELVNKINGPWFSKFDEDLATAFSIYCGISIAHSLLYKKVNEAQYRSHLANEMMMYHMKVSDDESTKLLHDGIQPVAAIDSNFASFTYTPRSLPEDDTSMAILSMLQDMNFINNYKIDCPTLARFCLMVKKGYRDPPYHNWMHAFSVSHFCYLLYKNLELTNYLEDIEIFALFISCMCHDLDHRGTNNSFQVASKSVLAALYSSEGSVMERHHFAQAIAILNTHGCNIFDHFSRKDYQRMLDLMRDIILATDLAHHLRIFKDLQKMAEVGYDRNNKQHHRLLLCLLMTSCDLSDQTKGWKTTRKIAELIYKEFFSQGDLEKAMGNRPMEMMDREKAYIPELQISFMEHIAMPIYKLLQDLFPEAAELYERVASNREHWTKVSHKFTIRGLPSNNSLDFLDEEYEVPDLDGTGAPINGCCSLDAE

Row | SMILES | Ki (Rhesus PDE2A3; [1]) [nM] | Ki (human PDE2A1; [2]) [nM] | Ki (Rhesus PDE2A3; [3]) [nM] | Ki (human PDE2A1; [4]) [nM]
1 | COCc1nc(C(=O)N[C@H](C)c2ccc(C(C)C)cc2)cc(=O)[nH]1 [Example 122, 2-(methoxymethyl)-N-{(1R)-1-[4-(1-methylethyl)phenyl]ethyl}-6-oxo-1,6-dihydropyrimidine-4-carboxamide] | 152 | 38 |  | 
2 | C[C@@H](NC(=O)c1cc(=O)[nH]c(-c2ccccc2)n1)c1ccc(C(F)(F)F)cc1 [Example 274, 6-oxo-2-phenyl-N-{(1R)-1-[4-(trifluoromethyl)phenyl]ethyl}-1,6-dihydropyrimidine-4-carboxamide] | 6.7 | 6.7 |  | 
3 | O=C(N[C@@H](c1ccc(OC(F)(F)F)cc1)C1CC1)c1cc(=O)[nH]c(C2CC2)n1 [Example 211, 2-cyclopropyl-N-{(R)-cyclopropyl[4-(trifluoromethoxy)phenyl]methyl}-6-oxo-1,6-dihydropyrimidine-4-carboxamide] | 7.1 | 2.5 |  | 
4 | C[C@@H](NC(=O)c1cc(=O)[nH]c(C2CC2)n1)c1ccc(S(F)(F)(F)(F)F)cc1 [Example 227, 2-cyclopropyl-6-oxo-N-{(1R)-1-[4-(pentafluoro-λ^6-sulfanyl)phenyl]ethyl}-1,6-dihydropyrimidine-4-carboxamide] | 12 | 6.5 |  | 
5 | Cc1nc(C(=O)NC2(c3ccc(SC(F)(F)F)cc3)CCC2)cc(=O)[nH]1 [Example 49, 2-methyl-6-oxo-N-(1-{4-[(trifluoromethyl)sulfanyl]phenyl}cyclobutyl)-1,6-dihydropyrimidine-4-carboxamide] | 79 | 45 |  | 
6 | Cc1nc(C(=O)N[C@H](C)c2ccc(C(F)(F)F)c(C)c2)cc(=O)[nH]1 [Example 46, 2-methyl-N-{(1R)-1-[3-methyl-4-(trifluoromethyl)phenyl]ethyl}-6-oxo-1,6-dihydropyrimidine-4-carboxamide] | 65 | 72 |  | 
7 | CC(C)(NC(=O)c1cc(=O)[nH]c(-c2ccccc2)n1)c1ccc(Br)cc1 [Example 340, N-[1-(4-bromophenyl)-1-methylethyl]-6-oxo-2-phenyl-1,6-dihydropyrimidine-4-carboxamide] | 49 |  | 109 | 83
8 | COCc1nc(C(=O)N[C@@H](c2ccc(OC(F)(F)F)c(F)c2)C2CC2)cc(=O)[nH]1 [Example 117, N-{(R)-cyclopropyl[3-fluoro-4-(trifluoromethoxy)phenyl]methyl}-2-(methoxymethyl)-6-oxo-1,6-dihydropyrimidine-4-carboxamide] | 80 | ~13 |  | 42
9 | COc1cccc(Cc2nc(C(=O)N[C@H](C)c3ccc(C(F)(F)F)cc3)cc(=O)[nH]2)c1 [Example 140, 2-(3-methoxybenzyl)-6-oxo-N-{(1R)-1-[4-(trifluoromethyl)phenyl]ethyl}-1,6-dihydropyrimidine-4-carboxamide] | 6.5 | 5.1 |  | 
10 | C[C@@H](NC(=O)c1cc(=O)[nH]c(Cc2ccc(F)cc2)n1)c1ccc(C(F)(F)F)cc1 [Example 132, 2-(4-fluorobenzyl)-6-oxo-N-{(1R)-1-[4-(trifluoromethyl)phenyl]ethyl}-1,6-dihydropyrimidine-4-carboxamide] | 34 | 24 |  | 
11 | CC(NC(=O)c1cc(=O)[nH]c(-c2ccccc2)n1)c1ccc2c(c1)OCCO2 (centres unmarked) [Example 360, N-[1-(2,3-dihydro-1,4-benzodioxin-6-yl)ethyl]-6-oxo-2-phenyl-1,6-dihydropyrimidine-4-carboxamide] | 222 |  | 459 | ~488
12 | Cc1nc(C(=O)N[C@H](C)c2ccc(-c3cccc(F)c3)cc2)cc(=O)[nH]1 [Example 323, N-[(1R)-1-(3′-fluorobiphenyl-4-yl)ethyl]-2-methyl-6-oxo-1,6-dihydropyrimidine-4-carboxamide] | 66 | 50 |  | 
13 | CC[C@@H](NC(=O)c1cc(=O)[nH]c(C2CC2)n1)c1ccc(OC(F)(F)F)c(F)c1 [Example 207] | 5.8 | 2.6 |  | 
14 | Cc1nc(C(=O)NC(C)(C)c2ccc(OC(F)(F)F)cc2)cc(=O)[nH]1 [Example 273, 2-methyl-N-{1-methyl-1-[4-(trifluoromethoxy)phenyl]ethyl}-1,6-oxo-1,6-dihydropyrimidine-4-carboxamide] | 304 | 278 |  | 
15 | C[C@@H](NC(=O)c1cc(=O)[nH]c(-c2ccccc2)n1)c1ccc(OC(F)(F)F)cc1F [Example 152] | 16 | 13 |  | 
16 | C[C@@H](NC(=O)c1cc(=O)[nH]c(-c2ncccn2)n1)c1ccc(-c2ccccc2)cc1 [Example 287, N-[(1R)-1-biphenyl-4-ylethyl]-6-oxo-1,6-dihydro-2,2′-bipyrimidine-4-carboxamide] | 45 | 28 |  | 
17 | O=C(NC1(c2ccc(SC(F)(F)F)c(F)c2)CC1)c1cc(=O)[nH]c(C2CC2)n1 [Example 252, 2-cyclopropyl-N-(1-{3-fluoro-4-[(trifluoromethyl)sulfanyl]phenyl}cyclopropyl)-6-oxo-1,6-dihydropyrimidine-4-carboxamide] | 8.7 | ~13 | 14 | 20
18 | Cc1nc(C(=O)N[C@@H](c2ccc(S(F)(F)(F)(F)F)cc2)C2CC2)cc(=O)[nH]1 [Example 405, N-{(R)-cyclopropyl[4-(pentafluoro-λ^6-sulfanyl)phenyl]methyl}-2-methyl-6-oxo-1,6-dihydropyrimidine-4-carboxamide] |  |  | 17 | 15
19 | CC[C@@H](NC(=O)c1cc(=O)[nH]c(-c2ccccc2)n1)c1ccc(SC(F)(F)F)c(F)c1 [Example 385, N-[(1R)-1-{3-fluoro-4-[(trifluoromethyl)sulfanyl]phenyl}pro-pyl]-6-oxo-2-phenyl-1,6-dihydropyrimidine-4-carboxamide] |  |  | 7 | 4.4
20 | CC(C)c1ccc([C@@H](C)NC(=O)c2cc(=O)[nH]c(-c3ccccc3)n2)cc1 [Example 146, N-{(1R)-1-[4-(1-methylethyl)phenyl]ethyl}-6-oxo-2-phenyl-1,6-dihydropyrimidine-4-carboxamide] | 9.3 | 7.1 |  | 

Now from value to compound:

Row | Ki (Rhesus PDE2A3; [1]) [nM] | Ki (human PDE2A1; [2]) [nM] | Ki (Rhesus PDE2A3; [3]) [nM] | Ki (human PDE2A1; [4]) [nM] | SMILES
21 |  |  | 12 | 9.8 | O=C(N[C@@H](c1ccc(SC(F)(F)F)c(F)c1)C1CC1)c1cc(=O)[nH]c(-c2ccccc2)n1 [Example 417, N-[(R)-cyclopropyl{3-fluoro-4-[(trifluoromethyl)sulfanyl]phenyl}methyl]-6-oxo-2-phenyl-1,6-dihydropyrimidine-4-carboxamide]
22 |  |  | 54 | 45 | CC[C@@H](NC(=O)c1cc(=O)[nH]c(C(C)(C)c2ccc(OC)cc2)n1)c1ccc(SC(F)(F)F)cc1 [Example 495, 2-[1-(4-methoxyphenyl)-1-methylethyl]-6-oxo-N-[(1R)-1-{4-[(trifluoromethyl)sulfanyl]phenyl}propyl]-1,6-dihydropyrimidine-4-carboxamide]
23 |  |  | 4.5 | 3.6 | CC(C)[C@@H](NC(=O)c1cc(=O)[nH]c(-c2ccccc2)n1)c1ccc(SC(F)(F)F)c(F)c1 [Example 407, N-[(1R)-1-{3-fluoro-4-[(trifluoromethyl)sulfanyl]phenyl}-2-methylpropyl]-6-oxo-2-phenyl-1,6-dihydropyrimidine-4-carboxamide]
24 |  |  | 8 | 8.2 | CCc1nc(C(=O)NC2(c3ccc(C(F)(F)F)c(F)c3)CC2)cc(=O)[nH]1 [Example 601, 2-ethyl-N-{1-[3-fluoro-4-(trifluoromethyl)phenyl]cyclopropyl}-6-oxo-1,6-dihydropyrimidine-4-carboxamide]
25 |  |  | 47 | 28 | Cc1nc(C(=O)N[C@H](C)c2ccc(C3(C)CC3)cc2)cc(=O)[nH]1 [Example 530, 2-methyl-N-{(1R)-1-[4-(1-methylcyclopropyl)phenyl]ethyl}-6-oxo-1,6-dihydropyrimidine-4-carboxamide]
26 |  |  | 0.96 | 0.91 | COc1ccc(Cc2nc(C(=O)N[C@@H](c3ccc(SC(F)(F)F)cc3)C(C)C)cc(=O)[nH]2)cc1 [Example 469, 2-(4-methoxybenzyl)-N-[(1R)-2-methyl-1-{4-[(trifluoromethyl)sulfanyl]phenyl}propyl]-6-oxo-1,6-dihydropyrimidine-4-carboxamide]
27 |  |  | 0.68 | 0.64 | COc1ccc(Cc2nc(C(=O)N[C@@H](c3ccc(C(F)(F)F)cc3)C(C)(C)C)cc(=O)[nH]2)cc1F [Example 457, N-{(1R)-2,2-dimethyl-1-[4-(trifluoromethyl)phenyl]propyl}-2-(3-fluoro-4-methoxybenzyl)-6-oxo-1,6-dihydropyrimidine-4-carboxamide]
28 |  |  | 84 | 56 | CC[C@@H](NC(=O)c1cc(=O)[nH]c(C(C)(C)c2ccc(OC)cc2)n1)c1ccc(OC(F)(F)F)cc1 [Example 505, 2-[1-(4-methoxyphenyl)-1-methylethyl]-6-oxo-N-{(1R)-1-[4-(trifluoromethoxy)phenyl]propyl}-1,6-dihydropyrimidine-4-carboxamide]
29 |  |  | 7.3 | 7.6 | O=C(N[C@@H](c1ccc(C2CC2)cc1)C1CC1)c1cc(=O)[nH]c(-c2ncccn2)n1 [Example 453, N-[(R)-cyclopropyl(4-cyclopropylphenyl)methyl]-6-oxo-1,6-dihydro-2,2′-bipyrimidine-4-carboxamide]
30 |  |  | 3.8 | 4 | CC1([C@@H](NC(=O)c2cc(=O)[nH]c(C3CC3)n2)c2ccc(S(F)(F)(F)(F)F)cc2)CC1 [Example 454, 2-cyclopropyl-N-{(R)-(1-methylcyclopropyl)[4-(pentafluoro-λ^6-sulfanyl)phenyl]methyl}-6-oxo-1,6-dihydropyrimidine-4-carboxamide]
